Measured values from patent US20230346961A1, “GLP-1 AND GIP RECEPTOR CO-AGONISTS” (Novo Nordisk A/S, priority 2020, published 2023).
Starred links: 1 amine or outer side, 2 acyl side, 3 side chain; linkers in the order of their positions; H or OH if unused. Non-standard residues stand in square brackets, D forms with d. Residues, ends and D or L forms follow the SMILES beside them. Groups on a side chain read outwards from the residue. *: point of attachment. C20 diacid = O=C(O)CCCCCCCCCCCCCCCCCCC(=O)*; γGlu = O=C(O)[C@H](CCC(=O)[*:2])N[*:1]; εLys = N[C@@H](CCCCN[*:1])C(=O)[*:2]; Trx = NC[C@H]1CC[C@H](C(=O)O)CC1; AEEA = NCCOCCOCC(=O)O; Aib = CC(C)(N)C(=O)O

Assays:
human GLP-1 receptor = human GLP-1 receptor (Homo sapiens, UniProt P43220); assay: cell-based; details: hGLP-1R
human GLP-1 receptor, sequence (P43220 24-463): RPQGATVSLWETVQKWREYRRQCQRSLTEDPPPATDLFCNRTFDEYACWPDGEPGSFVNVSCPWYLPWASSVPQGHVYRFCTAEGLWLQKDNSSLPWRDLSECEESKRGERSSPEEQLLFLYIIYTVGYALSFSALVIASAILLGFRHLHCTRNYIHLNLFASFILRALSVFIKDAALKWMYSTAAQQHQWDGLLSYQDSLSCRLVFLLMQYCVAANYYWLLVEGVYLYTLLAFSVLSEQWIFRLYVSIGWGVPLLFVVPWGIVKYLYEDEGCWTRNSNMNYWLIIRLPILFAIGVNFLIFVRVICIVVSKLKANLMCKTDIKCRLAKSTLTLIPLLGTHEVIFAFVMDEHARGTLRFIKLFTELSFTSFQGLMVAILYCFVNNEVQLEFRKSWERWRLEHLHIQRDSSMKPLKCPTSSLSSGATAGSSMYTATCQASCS

mouse GLP-1 receptor = molecular target: T1, mouse GLP-1 receptor (Mus musculus, UniProt O35659)
T1 sequence (O35659 22-463): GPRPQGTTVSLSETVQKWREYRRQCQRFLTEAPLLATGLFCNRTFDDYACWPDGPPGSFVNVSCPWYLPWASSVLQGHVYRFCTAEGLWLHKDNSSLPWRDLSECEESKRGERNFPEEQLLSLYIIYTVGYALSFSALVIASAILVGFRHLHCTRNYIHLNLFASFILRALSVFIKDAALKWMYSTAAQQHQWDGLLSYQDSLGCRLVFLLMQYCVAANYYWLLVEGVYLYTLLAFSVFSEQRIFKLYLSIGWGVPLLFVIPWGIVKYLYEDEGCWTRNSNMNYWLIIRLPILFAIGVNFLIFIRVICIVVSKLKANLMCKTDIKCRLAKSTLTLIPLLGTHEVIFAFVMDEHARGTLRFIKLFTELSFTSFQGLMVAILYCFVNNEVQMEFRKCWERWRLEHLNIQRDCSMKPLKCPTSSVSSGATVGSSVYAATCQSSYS
Protocol: (§1) The in vitro functional potency is the measure of target receptor activation in a whole cell assay.
(§2) In vitro functional potency was determined by measuring the response of the target receptor in a reporter gene assay in individual cell lines. […] When the respective receptor is activated, it results in the production of cAMP, which in turn results in expression of the luciferase protein. When assay incubation is completed, luciferase substrate (luciferin) is added resulting in the enzymatic conversion of luciferin to oxyluciferin and producing bioluminescence. The luminescence is measured as the readout for the assay.
(§3) The cells lines used in these assays were BHK cells with BHKTS13 as a parent cell line. The cell lines were derived from a clone containing the CRE luciferase element and were established by further transfection with the respective receptor to obtain the relevant cell line.
(§4) The cells were cultured at 37° C. with 5% CO2 in Cell Culture Medium. They were aliquoted and stored in liquid nitrogen. The cells were kept in continuous culture and were seeded out the day before each assay.
(§5) GLP-1R and GcgR Cell Culture Medium consisted of DMEM medium with 10% FBS, 500 μg/mL G418, and 300 μg/mL hygromycin. GIPR Cell Culture Medium consisted of DMEM medium with 10% FBS, 400 μg/mL G418, and 300 μg/mL hygromycin. Assay Buffer consisted of DMEM w/o phenol red, 10 mM Hepes, 1×Glutamax, 1% ovalbumin, and 0.1% Pluronic F-68 with the addition of HSA at twice the final assay concentration.
(§6) • 1) Cells were plated at 5000 cells/well and incubated overnight in the assay plate. • 2) Cells were washed once in DPBS. • 3) Stocks of the test compounds and reference compounds in concentrations ranging from 100-300 μM were diluted 1:150 in Assay Buffer. Compounds were then diluted 1:10 in column 1 of a 96 deep well dilution plate and then carried across the row creating a 3.5 fold, 12 point dilution curve. • 4) Assay Buffer (50 μl aliquot) with or without HSA was added to each well in the assay plate. • 5) A 50 μl aliquot of compound or blank was transferred from the dilution plate to the assay plate containing the Assay Buffer with or without HSA. • 6) The assay plate was incubated for 3 h in a 5% CO2 incubator at 37° C. 7) The cells were washed once with DPBS. • 8) A 100 μl aliquot of DPBS was added to each well of the assay plate. • 9) A 100 μl aliquot of steadylite plus reagent (light sensitive) was added to each well of the assay plate. • 10) Each assay plate was covered with aluminum foil to protect it from light and shaken at 250 RPM for 30 min at room temperature. • 11) Each assay plate was read in a microtiter plate reader.
(§7) The data from the microtiter plate reader was first regressed in an Excel in order to calculate the x-axis, log scale concentrations based on the individual test compound's stock concentration and the dilutions of the assay. […] The software performs a non-linear regression (log(agonist) vs response). A minimum of two replicates was measured for each sample. The reported values are averages of the replicates.

mouse GIP receptor = molecular target: T2, mouse GIP receptor (Mus musculus, UniProt Q0P543); assay: cell-based
T2 sequence (Q0P543 19-460): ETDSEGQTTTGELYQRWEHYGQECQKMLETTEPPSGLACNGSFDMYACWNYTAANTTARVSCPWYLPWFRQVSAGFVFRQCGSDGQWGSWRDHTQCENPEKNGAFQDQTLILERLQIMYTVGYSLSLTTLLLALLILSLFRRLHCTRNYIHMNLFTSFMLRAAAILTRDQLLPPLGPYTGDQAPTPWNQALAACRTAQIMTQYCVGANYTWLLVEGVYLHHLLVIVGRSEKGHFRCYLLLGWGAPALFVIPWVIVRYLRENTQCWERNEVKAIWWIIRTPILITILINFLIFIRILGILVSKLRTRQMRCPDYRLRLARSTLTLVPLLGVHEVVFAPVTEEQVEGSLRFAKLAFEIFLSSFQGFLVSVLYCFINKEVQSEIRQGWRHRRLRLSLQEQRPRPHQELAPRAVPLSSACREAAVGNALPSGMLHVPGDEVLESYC

human glucagon receptor = human glucagon receptor (Homo sapiens, UniProt P47871); assay: cell-based
human glucagon receptor, sequence (P47871 26-477): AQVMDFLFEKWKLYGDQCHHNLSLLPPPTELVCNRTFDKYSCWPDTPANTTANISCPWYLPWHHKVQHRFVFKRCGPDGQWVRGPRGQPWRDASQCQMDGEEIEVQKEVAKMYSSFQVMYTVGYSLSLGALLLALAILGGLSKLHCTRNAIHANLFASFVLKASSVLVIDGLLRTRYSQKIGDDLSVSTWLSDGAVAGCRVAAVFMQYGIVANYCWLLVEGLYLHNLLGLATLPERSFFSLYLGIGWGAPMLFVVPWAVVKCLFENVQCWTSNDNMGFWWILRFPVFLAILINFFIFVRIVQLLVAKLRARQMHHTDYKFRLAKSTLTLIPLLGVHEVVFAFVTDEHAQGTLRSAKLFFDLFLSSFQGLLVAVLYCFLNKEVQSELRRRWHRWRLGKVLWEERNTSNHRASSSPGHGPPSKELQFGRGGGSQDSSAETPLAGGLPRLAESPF
Protocol: as §1, §2, §3, §4, §5, §6, §7

Structure (SMILES)	EC50 (human GLP-1 receptor; CRE Luc 0% HSA EC50, 0% HSA) [pM]	EC50 (human GLP-1 receptor; CRE Luc 1% HSA EC50, 1% HSA) [pM]	EC50 (mouse GLP-1 receptor) [pM]	EC50 (mouse GIP receptor) [pM]	EC50 (human glucagon receptor) [pM]
CC[C@H](C)[C@H](NC(=O)[C@H](CO)NC(=O)[C@H](Cc1ccc(O)cc1)NC(=O)[C@H](CC(=O)O)NC(=O)[C@H](CO)NC(=O)[C@@H](NC(=O)[C@H](Cc1ccccc1)NC(=O)[C@@H](NC(=O)CNC(=O)[C@H](CCC(=O)O)NC(=O)C(C)(C)NC(=O)[C@@H](N)Cc1ccc(O)cc1)[C@@H](C)O)[C@@H](C)O)C(=O)N[C@@H](Cc1ccc(O)cc1)C(=O)N[C@@H](CC(C)C)C(=O)N[C@@H](CC(=O)O)C(=O)N[C@@H](CCCCN)C(=O)N[C@@H](CCC(N)=O)C(=O)N[C@@H](C)C(=O)N[C@@H](C)C(=O)NC(C)(C)C(=O)N[C@@H](CCCCNC(=O)[C@@H](N)CCCCNC(=O)[C@@H](N)CCCCNC(=O)CC[C@H](NC(=O)[C@H]1CC[C@H](CNC(=O)CCCCCCCCCCCCCCCCCCC(=O)O)CC1)C(=O)O)C(=O)N[C@@H](Cc1ccccc1)C(=O)N[C@H](C(=O)N[C@@H](CC(N)=O)C(=O)N[C@@H](Cc1c[nH]c2ccccc12)C(=O)N[C@@H](CC(C)C)C(=O)N[C@@H](CC(C)C)C(=O)N[C@@H](C)C(=O)NCC(=O)NCC(=O)N1CCC[C@H]1C(=O)N[C@@H](CO)C(=O)N[C@@H](CO)C(=O)NCC(=O)N[C@@H](C)C(=O)N1CCC[C@H]1C(=O)N1CCC[C@H]1C(=O)N1CCC[C@H]1C(=O)N[C@@H](CO)C(N)=O)C(C)C [Compound 14] (H-Y[Aib]EGTFTSDYSIYLDKQAA[Aib]K([εLys-εLys-γGlu-Trx-C20 diacid])FVNWLLAGGPSSGAPPPS-NH2; N-terminus assumed)	11.4	377	6	18.6	> 10000
CC[C@H](C)[C@H](NC(=O)[C@H](CO)NC(=O)[C@H](Cc1ccc(O)cc1)NC(=O)[C@H](CC(=O)O)NC(=O)[C@H](CO)NC(=O)[C@@H](NC(=O)[C@H](Cc1ccccc1)NC(=O)[C@@H](NC(=O)CNC(=O)[C@H](CCC(=O)O)NC(=O)C(C)(C)NC(=O)[C@@H](N)Cc1ccc(O)cc1)[C@@H](C)O)[C@@H](C)O)C(=O)N[C@@H](Cc1ccc(O)cc1)C(=O)N[C@@H](CC(C)C)C(=O)N[C@@H](CCC(=O)O)C(=O)N[C@@H](CCCCN)C(=O)N[C@@H](CCC(N)=O)C(=O)N[C@@H](C)C(=O)N[C@@H](C)C(=O)NC(C)(C)C(=O)N[C@@H](CCCCNC(=O)COCCOCCNC(=O)COCCOCCNC(=O)CC[C@H](NC(=O)[C@H]1CC[C@H](CNC(=O)CCCCCCCCCCCCCCCCCCC(=O)O)CC1)C(=O)O)C(=O)N[C@@H](Cc1ccccc1)C(=O)N[C@H](C(=O)N[C@@H](CC(N)=O)C(=O)N[C@@H](Cc1c[nH]c2ccccc12)C(=O)N[C@@H](CC(C)C)C(=O)N[C@@H](CC(C)C)C(=O)N[C@@H](C)C(=O)NCC(=O)NCC(=O)N1CCC[C@H]1C(=O)N[C@@H](CO)C(=O)N[C@@H](CO)C(=O)NCC(=O)N[C@@H](C)C(=O)N1CCC[C@H]1C(=O)N1CCC[C@H]1C(=O)N1CCC[C@H]1C(=O)N[C@@H](CO)C(N)=O)C(C)C [Compound 17] (H-Y[Aib]EGTFTSDYSIYLEKQAA[Aib]K([AEEA-AEEA-γGlu-Trx-C20 diacid])FVNWLLAGGPSSGAPPPS-NH2; N-terminus assumed)	4.1	229	2.3	21.9	> 10000
CC[C@H](C)[C@H](NC(=O)[C@H](CO)NC(=O)[C@H](Cc1ccc(O)cc1)NC(=O)[C@H](CC(=O)O)NC(=O)[C@H](CO)NC(=O)[C@@H](NC(=O)[C@H](Cc1ccccc1)NC(=O)[C@@H](NC(=O)CNC(=O)[C@H](CCC(=O)O)NC(=O)C(C)(C)NC(=O)[C@@H](N)Cc1ccc(O)cc1)[C@@H](C)O)[C@@H](C)O)C(=O)N[C@@H](Cc1ccc(O)cc1)C(=O)N[C@@H](CC(C)C)C(=O)N[C@@H](CCC(=O)O)C(=O)N[C@@H](CCCCN)C(=O)N[C@@H](CCC(N)=O)C(=O)N[C@@H](C)C(=O)N[C@@H](C)C(=O)NC(C)(C)C(=O)N[C@@H](CCCCNC(=O)[C@@H](N)CCCCNC(=O)[C@@H](N)CCCCNC(=O)CC[C@H](NC(=O)[C@H]1CC[C@H](CNC(=O)CCCCCCCCCCCCCCCCCCC(=O)O)CC1)C(=O)O)C(=O)N[C@@H](Cc1ccccc1)C(=O)N[C@H](C(=O)N[C@@H](CCC(N)=O)C(=O)N[C@@H](Cc1c[nH]c2ccccc12)C(=O)N[C@@H](CC(C)C)C(=O)N[C@@H](CC(C)C)C(=O)N[C@@H](CCC(=O)O)C(=O)NCC(=O)NCC(=O)N1CCC[C@H]1C(=O)N[C@@H](CO)C(=O)N[C@@H](CO)C(=O)NCC(=O)N[C@@H](C)C(=O)N1CCC[C@H]1C(=O)N1CCC[C@H]1C(=O)N1CCC[C@H]1C(=O)N[C@@H](CO)C(N)=O)C(C)C [Compound 24] (H-Y[Aib]EGTFTSDYSIYLEKQAA[Aib]K([εLys-εLys-γGlu-Trx-C20 diacid])FVQWLLEGGPSSGAPPPS-NH2; N-terminus assumed)	4.7	114	9.9	40.5	> 10000
CC[C@H](C)[C@H](NC(=O)[C@H](CO)NC(=O)[C@H](Cc1ccc(O)cc1)NC(=O)[C@H](CC(=O)O)NC(=O)[C@H](CO)NC(=O)[C@@H](NC(=O)[C@H](Cc1ccccc1)NC(=O)[C@@H](NC(=O)CNC(=O)[C@H](CCC(=O)O)NC(=O)C(C)(C)NC(=O)[C@@H](N)Cc1ccc(O)cc1)[C@@H](C)O)[C@@H](C)O)C(=O)N[C@@H](Cc1ccc(O)cc1)C(=O)N[C@@H](CC(C)C)C(=O)N[C@@H](CCC(=O)O)C(=O)N[C@@H](CCCCN)C(=O)N[C@@H](CCC(N)=O)C(=O)N[C@@H](C)C(=O)N[C@@H](C)C(=O)NC(C)(C)C(=O)N[C@@H](CCCCNC(=O)[C@@H](N)CCCCNC(=O)[C@@H](N)CCCCNC(=O)CC[C@H](NC(=O)[C@H]1CC[C@H](CNC(=O)CCCCCCCCCCCCCCCCCCC(=O)O)CC1)C(=O)O)C(=O)N[C@@H](Cc1ccccc1)C(=O)N[C@H](C(=O)N[C@@H](CC(N)=O)C(=O)N[C@@H](Cc1c[nH]c2ccccc12)C(=O)N[C@@H](CC(C)C)C(=O)N[C@@H](CC(C)C)C(=O)N[C@@H](C)C(=O)NCC(=O)NCC(=O)N1CCC[C@H]1C(=O)N[C@@H](CO)C(=O)N[C@@H](CO)C(=O)NCC(=O)N[C@@H](C)C(=O)N1CCC[C@H]1C(=O)N1CCC[C@H]1C(=O)N1CCC[C@H]1C(=O)N[C@@H](CO)C(N)=O)C(C)C [Compound 16] (H-Y[Aib]EGTFTSDYSIYLEKQAA[Aib]K([εLys-εLys-γGlu-Trx-C20 diacid])FVNWLLAGGPSSGAPPPS-NH2; N-terminus assumed)	6.1	202	3.5	16.9	> 10000
